Data published in the NIST ThermoML archive (doi:10.1021/je050389b).
± gives the expanded uncertainty stated by the source.

Assay: xn = mol fraction of the nth substance listed
Conditions: Liquid

CCCC(=O)OCCC(C)C [3-methylbutyl butanoate] + CCO
Conditions	mass density, 288.15 K [kg/m3]	mass density, 298.15 K [kg/m3]	mass density, 308.15 K [kg/m3]	mass density, 318.15 K [kg/m3]	viscosity, 288.15 K [mPa·s]	viscosity, 298.15 K [mPa·s]	viscosity, 308.15 K [mPa·s]	viscosity, 318.15 K [mPa·s]
100.5 kPa, x1 = 0.05	–	–	–	–	1.27 ± 0.018	1.057 ± 0.017	0.887 ± 0.016	0.744 ± 0.015
100.5 kPa, x1 = 0.1	–	–	–	–	1.231 ± 0.018	1.025 ± 0.017	0.858 ± 0.016	0.723 ± 0.015
100.5 kPa, x1 = 0.15	–	–	–	–	1.201 ± 0.018	1.004 ± 0.017	0.844 ± 0.015	0.715 ± 0.015
100.5 kPa, x1 = 0.2	–	–	–	–	1.181 ± 0.018	0.993 ± 0.016	0.838 ± 0.015	0.711 ± 0.015
100.5 kPa, x1 = 0.25	–	–	–	–	1.171 ± 0.018	0.985 ± 0.016	0.834 ± 0.015	0.71 ± 0.015
100.5 kPa, x1 = 0.3	–	–	–	–	1.167 ± 0.018	0.98 ± 0.016	0.832 ± 0.015	0.71 ± 0.015
100.5 kPa, x1 = 0.35	–	–	–	–	1.168 ± 0.018	0.98 ± 0.016	0.833 ± 0.015	0.714 ± 0.015
100.5 kPa, x1 = 0.4	–	–	–	–	1.17 ± 0.018	0.984 ± 0.016	0.835 ± 0.015	0.717 ± 0.015
100.5 kPa, x1 = 0.45	–	–	–	–	1.176 ± 0.018	0.989 ± 0.016	0.84 ± 0.015	0.723 ± 0.015
100.5 kPa, x1 = 0.5	–	–	–	–	1.183 ± 0.018	0.994 ± 0.017	0.846 ± 0.016	0.729 ± 0.015
100.5 kPa, x1 = 0.55	–	–	–	–	1.191 ± 0.018	1.001 ± 0.017	0.853 ± 0.016	0.735 ± 0.015
100.5 kPa, x1 = 0.6	–	–	–	–	1.202 ± 0.018	1.01 ± 0.017	0.862 ± 0.016	0.743 ± 0.015
100.5 kPa, x1 = 0.65	–	–	–	–	1.213 ± 0.018	1.021 ± 0.017	0.872 ± 0.016	0.751 ± 0.015
100.5 kPa, x1 = 0.7	–	–	–	–	1.224 ± 0.018	1.031 ± 0.017	0.882 ± 0.016	0.76 ± 0.015
100.5 kPa, x1 = 0.75	–	–	–	–	1.237 ± 0.018	1.043 ± 0.017	0.891 ± 0.016	0.77 ± 0.015
100.5 kPa, x1 = 0.8	–	–	–	–	1.253 ± 0.019	1.056 ± 0.017	0.903 ± 0.016	0.781 ± 0.015
100.5 kPa, x1 = 0.85	–	–	–	–	1.268 ± 0.019	1.071 ± 0.017	0.915 ± 0.016	0.792 ± 0.015
100.5 kPa, x1 = 0.9	–	–	–	–	1.284 ± 0.019	1.086 ± 0.017	0.929 ± 0.016	0.806 ± 0.015
100.5 kPa, x1 = 0.95	–	–	–	–	1.302 ± 0.019	1.099 ± 0.017	0.941 ± 0.016	0.817 ± 0.015
100.5 kPa, x1 = 1	–	–	–	–	1.317 ± 0.019	1.111 ± 0.018	0.952 ± 0.016	0.827 ± 0.016
101 kPa, x1 = 0.05	804.06 ± 0.23	795.35 ± 0.23	786.52 ± 0.24	777.54 ± 0.24	–	–	–	–
101 kPa, x1 = 0.1	812.38 ± 0.22	803.57 ± 0.23	794.63 ± 0.24	785.54 ± 0.24	–	–	–	–
101 kPa, x1 = 0.15	819.51 ± 0.22	810.61 ± 0.23	801.58 ± 0.23	792.4 ± 0.24	–	–	–	–
101 kPa, x1 = 0.2	825.58 ± 0.22	816.61 ± 0.23	807.52 ± 0.23	798.28 ± 0.24	–	–	–	–
101 kPa, x1 = 0.25	830.83 ± 0.23	821.8 ± 0.23	812.66 ± 0.24	803.38 ± 0.24	–	–	–	–
101 kPa, x1 = 0.3	835.41 ± 0.23	826.34 ± 0.23	817.17 ± 0.24	807.86 ± 0.24	–	–	–	–
101 kPa, x1 = 0.35	839.37 ± 0.23	830.31 ± 0.24	821.11 ± 0.24	811.78 ± 0.25	–	–	–	–
101 kPa, x1 = 0.4	842.96 ± 0.24	833.85 ± 0.24	824.64 ± 0.24	815.3 ± 0.25	–	–	–	–
101 kPa, x1 = 0.45	846.14 ± 0.24	837.02 ± 0.24	827.79 ± 0.25	818.44 ± 0.25	–	–	–	–
101 kPa, x1 = 0.5	849.03 ± 0.25	839.9 ± 0.25	830.66 ± 0.25	821.32 ± 0.26	–	–	–	–
101 kPa, x1 = 0.55	851.61 ± 0.25	842.46 ± 0.25	833.24 ± 0.26	823.9 ± 0.26	–	–	–	–
101 kPa, x1 = 0.6	854.01 ± 0.26	844.86 ± 0.26	835.64 ± 0.26	826.33 ± 0.27	–	–	–	–
101 kPa, x1 = 0.65	856.19 ± 0.26	847.05 ± 0.27	837.84 ± 0.27	828.54 ± 0.27	–	–	–	–
101 kPa, x1 = 0.7	858.18 ± 0.27	849.04 ± 0.27	839.85 ± 0.28	830.57 ± 0.28	–	–	–	–
101 kPa, x1 = 0.75	860.04 ± 0.28	850.92 ± 0.28	841.74 ± 0.28	832.49 ± 0.28	–	–	–	–
101 kPa, x1 = 0.8	861.76 ± 0.29	852.65 ± 0.29	843.5 ± 0.29	834.28 ± 0.29	–	–	–	–
101 kPa, x1 = 0.85	863.35 ± 0.29	854.28 ± 0.29	845.15 ± 0.3	835.96 ± 0.3	–	–	–	–
101 kPa, x1 = 0.9	864.86 ± 0.3	855.81 ± 0.3	846.71 ± 0.3	837.56 ± 0.31	–	–	–	–
101 kPa, x1 = 0.95	866.3 ± 0.31	857.28 ± 0.31	848.22 ± 0.31	839.12 ± 0.31	–	–	–	–
101 kPa, x1 = 1	867.72 ± 0.32	858.69 ± 0.32	849.62 ± 0.32	840.55 ± 0.32	–	–	–	–

CC(=O)OCCC(C)C [3-methylbutyl ethanoate] + CCO
100.5 kPa
Conditions	mass density, 288.15 K [kg/m3]	mass density, 298.15 K [kg/m3]	mass density, 308.15 K [kg/m3]	mass density, 318.15 K [kg/m3]	viscosity, 288.15 K [mPa·s]	viscosity, 298.15 K [mPa·s]	viscosity, 308.15 K [mPa·s]	viscosity, 318.15 K [mPa·s]
x1 = 0.05	803.41 ± 0.23	794.64 ± 0.23	785.74 ± 0.24	776.69 ± 0.24	1.22 ± 0.018	1.011 ± 0.017	0.847 ± 0.015	0.716 ± 0.015
x1 = 0.1	811.89 ± 0.23	802.92 ± 0.23	793.84 ± 0.24	784.6 ± 0.24	1.133 ± 0.017	0.946 ± 0.016	0.799 ± 0.015	0.68 ± 0.015
x1 = 0.15	819.25 ± 0.23	810.13 ± 0.23	800.9 ± 0.24	791.5 ± 0.24	1.072 ± 0.017	0.902 ± 0.016	0.762 ± 0.015	0.651 ± 0.014
x1 = 0.2	825.81 ± 0.23	816.58 ± 0.23	807.21 ± 0.24	797.69 ± 0.24	1.031 ± 0.017	0.866 ± 0.016	0.735 ± 0.015	0.63 ± 0.014
x1 = 0.25	831.66 ± 0.23	822.31 ± 0.24	812.85 ± 0.24	803.22 ± 0.25	0.996 ± 0.016	0.841 ± 0.015	0.716 ± 0.015	0.615 ± 0.014
x1 = 0.3	836.85 ± 0.23	827.42 ± 0.24	817.86 ± 0.24	808.15 ± 0.25	0.968 ± 0.016	0.821 ± 0.015	0.701 ± 0.015	0.605 ± 0.014
x1 = 0.35	841.58 ± 0.24	832.08 ± 0.24	822.44 ± 0.25	812.65 ± 0.25	0.948 ± 0.016	0.805 ± 0.015	0.689 ± 0.015	0.596 ± 0.014
x1 = 0.4	845.81 ± 0.25	836.24 ± 0.25	826.53 ± 0.25	816.69 ± 0.26	0.934 ± 0.016	0.793 ± 0.015	0.68 ± 0.015	0.59 ± 0.014
x1 = 0.45	849.7 ± 0.25	840.07 ± 0.25	830.32 ± 0.26	820.42 ± 0.26	0.924 ± 0.016	0.786 ± 0.015	0.675 ± 0.015	0.586 ± 0.014
x1 = 0.5	853.26 ± 0.26	843.59 ± 0.26	833.79 ± 0.27	823.86 ± 0.27	0.916 ± 0.016	0.779 ± 0.015	0.671 ± 0.015	0.583 ± 0.014
x1 = 0.55	856.53 ± 0.27	846.82 ± 0.27	836.99 ± 0.27	827.03 ± 0.27	0.91 ± 0.016	0.776 ± 0.015	0.668 ± 0.015	0.582 ± 0.014
x1 = 0.6	859.57 ± 0.27	849.83 ± 0.28	839.97 ± 0.28	829.99 ± 0.28	0.907 ± 0.016	0.773 ± 0.015	0.667 ± 0.015	0.582 ± 0.014
x1 = 0.65	862.36 ± 0.28	852.58 ± 0.28	842.71 ± 0.29	832.72 ± 0.29	0.908 ± 0.016	0.773 ± 0.015	0.667 ± 0.015	0.584 ± 0.014
x1 = 0.7	865 ± 0.29	855.21 ± 0.29	845.33 ± 0.3	835.33 ± 0.3	0.911 ± 0.016	0.775 ± 0.015	0.67 ± 0.015	0.588 ± 0.014
x1 = 0.75	867.44 ± 0.3	857.64 ± 0.3	847.75 ± 0.3	837.75 ± 0.31	0.912 ± 0.016	0.78 ± 0.015	0.675 ± 0.015	0.594 ± 0.014
x1 = 0.8	869.73 ± 0.31	859.93 ± 0.31	850.04 ± 0.31	840.05 ± 0.32	0.916 ± 0.016	0.782 ± 0.015	0.68 ± 0.015	0.601 ± 0.014
x1 = 0.85	871.89 ± 0.32	862.08 ± 0.32	852.2 ± 0.32	842.22 ± 0.33	0.926 ± 0.016	0.791 ± 0.015	0.688 ± 0.015	0.609 ± 0.014
x1 = 0.9	873.95 ± 0.33	864.14 ± 0.33	854.28 ± 0.33	844.34 ± 0.34	0.937 ± 0.016	0.799 ± 0.015	0.697 ± 0.015	0.618 ± 0.014
x1 = 0.95	875.87 ± 0.34	866.09 ± 0.34	856.25 ± 0.35	846.32 ± 0.35	0.939 ± 0.016	0.804 ± 0.015	0.703 ± 0.015	0.625 ± 0.014
x1 = 1	877.72 ± 0.36	867.91 ± 0.36	858.07 ± 0.36	848.17 ± 0.36	0.94 ± 0.016	0.804 ± 0.015	0.704 ± 0.015	0.627 ± 0.014
